Measured values taken from BindingDB's records for patent US11547697 (Millennium Pharmaceuticals, 2023).

Key:
Experiment in all cases: Inhibition Assay of PI3K
[1] = target: Phosphatidylinositol 4,5-bisphosphate 3-kinase catalytic subunit alpha isoform (Homo sapiens, UniProt P42336)
[2] = target: Phosphatidylinositol 4,5-bisphosphate 3-kinase catalytic subunit beta isoform (Homo sapiens, UniProt P42338)
[3] = target: T1, Phosphatidylinositol 4,5-bisphosphate 3-kinase catalytic subunit delta isoform (Homo sapiens, UniProt O00329)
T1 sequence (O00329 whole entry): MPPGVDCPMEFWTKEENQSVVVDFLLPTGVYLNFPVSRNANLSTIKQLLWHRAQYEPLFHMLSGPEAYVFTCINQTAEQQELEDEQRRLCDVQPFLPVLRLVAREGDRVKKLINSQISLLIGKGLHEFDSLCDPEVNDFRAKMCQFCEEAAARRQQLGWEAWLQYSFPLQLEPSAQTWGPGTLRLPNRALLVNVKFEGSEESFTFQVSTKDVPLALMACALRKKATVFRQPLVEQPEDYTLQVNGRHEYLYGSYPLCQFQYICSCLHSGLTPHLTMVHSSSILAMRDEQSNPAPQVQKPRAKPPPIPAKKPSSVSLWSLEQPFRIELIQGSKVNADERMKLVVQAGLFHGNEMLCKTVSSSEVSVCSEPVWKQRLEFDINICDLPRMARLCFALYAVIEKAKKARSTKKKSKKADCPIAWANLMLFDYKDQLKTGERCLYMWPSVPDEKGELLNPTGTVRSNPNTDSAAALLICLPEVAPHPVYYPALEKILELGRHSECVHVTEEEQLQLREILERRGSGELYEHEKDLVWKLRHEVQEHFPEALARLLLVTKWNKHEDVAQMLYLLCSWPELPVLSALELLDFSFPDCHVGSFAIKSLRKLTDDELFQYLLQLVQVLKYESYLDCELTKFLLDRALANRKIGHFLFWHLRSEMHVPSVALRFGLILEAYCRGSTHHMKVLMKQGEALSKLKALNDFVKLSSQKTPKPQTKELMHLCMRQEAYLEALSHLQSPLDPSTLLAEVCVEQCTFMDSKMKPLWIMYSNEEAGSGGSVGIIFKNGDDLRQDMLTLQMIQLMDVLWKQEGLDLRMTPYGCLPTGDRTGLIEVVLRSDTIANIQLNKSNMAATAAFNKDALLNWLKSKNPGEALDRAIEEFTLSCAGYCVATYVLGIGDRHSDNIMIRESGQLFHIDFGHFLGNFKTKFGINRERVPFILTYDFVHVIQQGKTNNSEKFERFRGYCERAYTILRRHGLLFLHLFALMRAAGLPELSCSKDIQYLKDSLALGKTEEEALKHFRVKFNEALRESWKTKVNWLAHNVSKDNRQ

[4] = target: Phosphatidylinositol 4,5-bisphosphate 3-kinase catalytic subunit gamma isoform (Homo sapiens, UniProt P48736)
Phosphatidylinositol 4,5-bisphosphate 3-kinase catalytic subunit gamma isoform, sequence (P48736 whole entry, canonical isoform): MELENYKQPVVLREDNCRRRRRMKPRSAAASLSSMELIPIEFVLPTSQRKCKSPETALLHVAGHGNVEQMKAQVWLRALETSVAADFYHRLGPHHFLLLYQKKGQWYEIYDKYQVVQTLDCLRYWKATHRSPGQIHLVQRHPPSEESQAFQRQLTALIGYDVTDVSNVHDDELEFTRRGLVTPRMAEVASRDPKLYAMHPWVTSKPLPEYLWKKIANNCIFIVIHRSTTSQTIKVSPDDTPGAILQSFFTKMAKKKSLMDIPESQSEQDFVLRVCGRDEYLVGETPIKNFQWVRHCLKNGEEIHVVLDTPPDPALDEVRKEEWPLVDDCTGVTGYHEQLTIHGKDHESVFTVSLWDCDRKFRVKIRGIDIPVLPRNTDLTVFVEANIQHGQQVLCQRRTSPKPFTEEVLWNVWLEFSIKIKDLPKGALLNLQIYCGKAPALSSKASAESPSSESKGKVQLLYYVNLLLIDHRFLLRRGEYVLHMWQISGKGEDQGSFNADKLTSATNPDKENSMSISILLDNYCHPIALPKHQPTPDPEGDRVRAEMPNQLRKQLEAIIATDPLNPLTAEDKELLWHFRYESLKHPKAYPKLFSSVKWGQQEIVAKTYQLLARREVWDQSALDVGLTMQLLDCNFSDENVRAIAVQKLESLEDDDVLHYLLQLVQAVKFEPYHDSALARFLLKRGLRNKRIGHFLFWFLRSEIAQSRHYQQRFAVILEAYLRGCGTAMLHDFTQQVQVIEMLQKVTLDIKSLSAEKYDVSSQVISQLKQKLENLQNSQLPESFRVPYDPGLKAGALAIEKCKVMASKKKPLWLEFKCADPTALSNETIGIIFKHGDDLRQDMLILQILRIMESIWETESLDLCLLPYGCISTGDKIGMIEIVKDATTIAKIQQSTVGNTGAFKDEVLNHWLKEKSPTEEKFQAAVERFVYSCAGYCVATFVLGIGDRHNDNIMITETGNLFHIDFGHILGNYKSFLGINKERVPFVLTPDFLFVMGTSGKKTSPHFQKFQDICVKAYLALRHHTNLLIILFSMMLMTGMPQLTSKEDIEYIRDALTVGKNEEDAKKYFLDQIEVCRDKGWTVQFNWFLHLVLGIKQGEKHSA

Measured: IC50

Phosphatidylinositol 4,5-bisphosphate 3-kinase catalytic subunit beta isoform, sequence (P42338 whole entry, canonical isoform): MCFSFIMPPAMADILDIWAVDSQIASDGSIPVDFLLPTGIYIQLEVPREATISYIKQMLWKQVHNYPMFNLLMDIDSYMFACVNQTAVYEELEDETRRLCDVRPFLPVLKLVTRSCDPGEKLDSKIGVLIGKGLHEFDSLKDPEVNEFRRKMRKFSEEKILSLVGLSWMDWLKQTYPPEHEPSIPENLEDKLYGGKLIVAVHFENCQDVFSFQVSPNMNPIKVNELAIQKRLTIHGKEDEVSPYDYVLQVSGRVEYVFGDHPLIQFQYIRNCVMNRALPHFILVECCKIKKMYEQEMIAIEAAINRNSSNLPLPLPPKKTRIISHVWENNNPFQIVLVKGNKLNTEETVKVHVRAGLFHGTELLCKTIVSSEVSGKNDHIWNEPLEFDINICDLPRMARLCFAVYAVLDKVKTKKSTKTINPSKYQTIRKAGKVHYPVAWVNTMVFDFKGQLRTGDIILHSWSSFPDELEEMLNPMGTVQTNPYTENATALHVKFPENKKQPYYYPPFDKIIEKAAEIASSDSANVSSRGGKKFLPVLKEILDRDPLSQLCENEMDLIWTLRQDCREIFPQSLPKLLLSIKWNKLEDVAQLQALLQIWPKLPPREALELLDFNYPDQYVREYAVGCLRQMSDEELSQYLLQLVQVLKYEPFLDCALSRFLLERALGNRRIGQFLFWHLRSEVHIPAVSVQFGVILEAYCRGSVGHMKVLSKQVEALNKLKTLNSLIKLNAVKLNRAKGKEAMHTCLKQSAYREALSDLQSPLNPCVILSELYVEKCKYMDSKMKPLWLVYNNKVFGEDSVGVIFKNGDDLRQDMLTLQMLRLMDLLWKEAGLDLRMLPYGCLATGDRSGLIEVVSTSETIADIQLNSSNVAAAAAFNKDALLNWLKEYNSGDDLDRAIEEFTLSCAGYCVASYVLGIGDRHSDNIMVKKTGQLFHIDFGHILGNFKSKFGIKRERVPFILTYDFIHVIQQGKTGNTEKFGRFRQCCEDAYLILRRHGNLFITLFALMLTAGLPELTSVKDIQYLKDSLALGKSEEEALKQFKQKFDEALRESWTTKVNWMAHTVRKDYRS
Phosphatidylinositol 4,5-bisphosphate 3-kinase catalytic subunit alpha isoform, sequence (P42336 whole entry, canonical isoform): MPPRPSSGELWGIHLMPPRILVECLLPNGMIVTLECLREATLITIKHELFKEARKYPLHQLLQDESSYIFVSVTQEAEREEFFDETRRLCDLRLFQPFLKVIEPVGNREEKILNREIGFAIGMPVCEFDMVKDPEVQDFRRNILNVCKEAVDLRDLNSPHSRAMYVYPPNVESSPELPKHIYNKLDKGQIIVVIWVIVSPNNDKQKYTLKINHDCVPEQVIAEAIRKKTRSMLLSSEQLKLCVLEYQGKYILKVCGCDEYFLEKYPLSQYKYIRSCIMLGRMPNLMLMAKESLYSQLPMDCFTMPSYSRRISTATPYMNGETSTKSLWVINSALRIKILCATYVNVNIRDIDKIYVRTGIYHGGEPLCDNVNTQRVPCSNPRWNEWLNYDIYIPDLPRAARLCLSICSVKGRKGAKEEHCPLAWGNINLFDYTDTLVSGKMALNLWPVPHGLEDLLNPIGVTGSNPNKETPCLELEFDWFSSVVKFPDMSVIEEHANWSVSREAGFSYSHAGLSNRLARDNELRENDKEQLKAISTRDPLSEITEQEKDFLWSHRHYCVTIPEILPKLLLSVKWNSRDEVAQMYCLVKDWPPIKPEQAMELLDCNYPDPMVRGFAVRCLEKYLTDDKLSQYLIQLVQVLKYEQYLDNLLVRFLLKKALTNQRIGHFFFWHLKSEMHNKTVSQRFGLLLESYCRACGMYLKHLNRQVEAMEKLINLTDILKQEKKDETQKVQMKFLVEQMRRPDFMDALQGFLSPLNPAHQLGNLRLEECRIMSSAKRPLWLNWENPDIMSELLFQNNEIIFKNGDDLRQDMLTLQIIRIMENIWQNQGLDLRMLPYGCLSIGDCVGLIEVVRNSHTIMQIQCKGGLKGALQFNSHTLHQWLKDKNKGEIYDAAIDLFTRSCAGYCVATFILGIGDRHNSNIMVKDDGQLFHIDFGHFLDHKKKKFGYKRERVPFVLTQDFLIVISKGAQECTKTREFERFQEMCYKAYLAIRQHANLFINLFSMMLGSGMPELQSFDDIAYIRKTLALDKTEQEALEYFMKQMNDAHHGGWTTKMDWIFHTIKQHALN

Nc1nc2cc(-c3ccc4nnc(C(=O)N5CCOCC5)n4c3)ccc2o1 [US11547697, Compound 282]
> 10 µM: all assays above

CN1CCC(Nc2nc3cc(-c4ccc5ncc(C(=O)N6CCOCC6)n5c4)ccc3o2)CC1 [US11547697, Compound 408]
> 10 µM: all assays above

Nc1nc2cc(-c3ccc4nc(N)c(N5CC(N6CCOCC6)C5)nc4c3)ccc2o1 [US11547697, Compound 404]
> 10 µM: all assays above

C[C@H]1CN(c2cnc3cccc(-c4ccc5oc(N)nc5c4)c3n2)CCN1 [US11547697, Compound 342]
> 10 µM: all assays above

C[C@H]1CN(c2cnc3ccc(-c4cccc5c(N)nsc45)cc3n2)CCN1 [US11547697, Compound 321]
> 10 µM: all assays above

C[C@H]1CN(c2cnc3ccc(-c4cccc5nc(N)oc45)cc3n2)CCN1 [US11547697, Compound 310]
> 10 µM: all assays above

CC(=O)Nc1n[nH]c2ccc(-c3ccc4oc(N)nc4c3)cc12 [US11547697, Compound 431]
> 10 µM: all assays above

CNS(=O)(=O)c1cc(-c2ccc3ncc(C(=O)N4CCOCC4)n3c2)ccc1OC [US11547697, Compound 445]
> 10 µM: all assays above

O=C(c1cnc2ccc(-c3cccc(S(=O)(=O)Nc4ccccc4)c3)cn12)N1CCOCC1 [US11547697, Compound 440]
> 10 µM: all assays above

Nc1n[nH]c2c(-c3ccc4ncc(C(=O)N5CCOCC5)n4c3)cccc12 [US11547697, Compound 490]
> 10 µM: all assays above

O=C(c1cnc2ccc(-c3cccc(S(=O)(=O)Nc4cc(F)ccc4F)c3)cn12)N1CCOCC1 [US11547697, Compound 441]
> 10 µM: all assays above

Cc1cc2oc(N)nc2cc1-c1ccc2ncc(C(=O)N3CCOCC3)n2c1 [US11547697, Compound 352]
> 10 µM: all assays above

CC(C)N1CCN(c2cnc3ccc(-c4ccc5oc(N)nc5c4)cc3n2)C(=O)C1 [US11547697, Compound 392]
> 10 µM: all assays above

O=C(c1cnc2ccc(-c3ccc4c(Nc5ccccc5)nsc4c3)cn12)N1CCOCC1 [US11547697, Compound 505]
> 10 µM: all assays above

Cc1cc2ncc(C(=O)N3CCOCC3)n2cc1-c1ccc2oc(N)nc2c1 [US11547697, Compound 507]
> 10 µM: all assays above
